The values that follow come from PubChem BioAssay (NCI).

Some test systems named below: K-562 leukemia; MALME-3M melanoma; SK-MEL-5 melanoma; BT-549 breast; NCI-H460 lung; KM12 colon; M14 melanoma; NCI-H23 lung; 786-0 renal; OVCAR-3 ovarian; MDA-MB-435; SNB-75 CNS; MCF7 breast; SNB-19 CNS; MDA-N; HCT-15 colon; TK-10 renal; A498 renal; CAKI-1 renal; OVCAR-8 ovarian.
Common to all, as to experiment: NCI tumour cell line growth inhibition, 48 h

The structures appear in SMILES notation.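 How tested: cells in 96-well plates exposed to compound for 48 hours at five concentrations. The concentration for full growth arrest is given as TGI.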

Take `Clc1ccc(C=NC23CC4CC(CC(C4)C2)C3)cc1Cl`: the TGI in the test on K-562 leukemia, with MALME-3M melanoma, with SK-MEL-5 melanoma, with BT-549 breast, in the test on NCI-H460 lung and in the test with KM12 colon was more than 10 µM in each case. The TGI in the test with M14 melanoma, in the test with NCI-H23 lung, in the test on 786-0 renal, with OVCAR-3 ovarian, in the test with MDA-MB-435 and in the test on SNB-75 CNS was more than 10 µM throughout. In addition, the TGI in the test on MCF7 breast, with SNB-19 CNS, with MDA-N, in the test on HCT-15 colon, with TK-10 renal and in the test on A498 renal was more than 10 µM in each case. Also, the TGI with CAKI-1 renal and in the test on OVCAR-8 ovarian was more than 10 µM each time.
Consider `CNC(=O)CNC(=O)C(Cc1ccc(NC(=O)CCCCC(C)=O)cc1)NC(=O)C(CCC(=O)OCc1ccccc1)NC(=O)OC(C)(C)C` (stereo not given), for which the TGI in the test with K-562 leukemia, in the test with MALME-3M melanoma, in the test on SK-MEL-5 melanoma, in the test with BT-549 breast, with NCI-H460 lung and with KM12 colon was more than 100 µM each time. The TGI with M14 melanoma, in the test on NCI-H23 lung, with 786-0 renal, with OVCAR-3 ovarian, in the test with MDA-MB-435 and in the test with SNB-75 CNS was more than 100 µM in each case. In addition, the TGI with MCF7 breast, in the test with SNB-19 CNS, in the test with MDA-N, in the test on HCT-15 colon, with TK-10 renal and in the test with A498 renal was more than 100 µM throughout. For the same molecule, the TGI with CAKI-1 renal and in the test on OVCAR-8 ovarian was more than 100 µM in each case.
`O=S(=O)(O)c1cc(N=Nc2cc(S(=O)(=O)O)c3cccnc3c2O)ccc1/C=C/c1ccc(N=Nc2cc(S(=O)(=O)O)c3cccnc3c2O)cc1S(=O)(=O)O`: the TGI in the test with K-562 leukemia is more than 89.8 µM; with MALME-3M melanoma it was more than 100 µM; in the test on SK-MEL-5 melanoma it was more than 100 µM; in the test with BT-549 breast, more than 100 µM; with NCI-H460 lung, more than 100 µM; in the test with KM12 colon, more than 100 µM. Moreover, the TGI in the test on M14 melanoma, in the test on NCI-H23 lung, in the test on 786-0 renal, with OVCAR-3 ovarian, in the test with MDA-MB-435 and with SNB-75 CNS was more than 100 µM in each case. Also, the TGI in the test with MCF7 breast, with SNB-19 CNS, with MDA-N, in the test on HCT-15 colon, with TK-10 renal and in the test with A498 renal was more than 100 µM throughout. Moreover, the TGI with CAKI-1 renal and with OVCAR-8 ovarian was more than 100 µM throughout.
In the case of `C#C[C@]1(O)CC[C@H]2[C@@H]3CCC4=C/C(=N\OCCN(CC)CC)CC[C@]4(C)[C@H]3CC[C@@]21C`, the TGI stood at 11.9 µM with K-562 leukemia; 10.2 µM with MALME-3M melanoma; 7.37 µM in the test with SK-MEL-5 melanoma; 31.5 µM in the test on BT-549 breast; 21 µM in the test on NCI-H460 lung; 11.4 µM in the test on KM12 colon. Besides, the TGI in the test on M14 melanoma was 10.9 µM; in the test on NCI-H23 lung, 19.7 µM; in the test with 786-0 renal, 9.42 µM; in the test with OVCAR-3 ovarian, 8.91 µM; in the test on MDA-MB-435, 15.2 µM; in the test on SNB-75 CNS it was 10.9 µM. The TGI with MCF7 breast was 21.3 µM; in the test on SNB-19 CNS it was 18.5 µM; with MDA-N it was 6.24 µM; in the test on HCT-15 colon it was 25.3 µM; with TK-10 renal, 23.5 µM; in the test with A498 renal, 28.9 µM. Also, the TGI in the test on CAKI-1 renal was found to be 39.7 µM; in the test on OVCAR-8 ovarian it was 24.6 µM.
As to `COC(=O)c1ccccc1C1CN=NC12Cc1cc(C)c(C)cc1C2=O` (stereo not given), the TGI in the test on K-562 leukemia is more than 100 µM; with MALME-3M melanoma it was more than 100 µM; in the test with SK-MEL-5 melanoma, 38.1 µM; in the test on BT-549 breast, more than 100 µM; in the test on NCI-H460 lung, more than 100 µM; with KM12 colon it was more than 100 µM. Further, the TGI with M14 melanoma, with NCI-H23 lung, in the test with 786-0 renal, in the test on OVCAR-3 ovarian, with MDA-MB-435 and with SNB-75 CNS was more than 100 µM in each case. The TGI in the test on MCF7 breast is 65 µM; in the test with SNB-19 CNS it was more than 100 µM; in the test on MDA-N, more than 100 µM; in the test with HCT-15 colon it was more than 100 µM; in the test with TK-10 renal it was more than 100 µM; with A498 renal it was more than 100 µM. The TGI with CAKI-1 renal and in the test on OVCAR-8 ovarian was more than 100 µM throughout.
